Consider 23 molecules from patent US10919896B2, “Preparation and uses of pyrimidinone derivatives” (Cancer Research Technology Limited, priority 2016, dated 2021).

The subject of experiment [1] is Cdc7 (pS53MCM2 levels in SW48 cells). Put plainly: Cdc7 Cell Pharmacodynamics Assay Method 3: pS53MCM2 levels in SW48 cells, 6 hours. The class given is cell-based. Conditions: for EC50: Homo sapiens, SW48, 6 h, read-out: Biomarker Method 3 (pEC50) (converted). The source says:
This protocol describes a method to investigate the inhibition of Cdc7 activity by measuring pS53MCM2 levels in cells, after treatment with compounds.
• SW48 cells • RPMI 1640 (Sigma, R5886) • 10% FCS (Sera Laboratories International Ltd, EU000F Batch:108005) • 100× L-Glutamine (Invitrogen, 25030-024) • D-Glucose Solution (10%) (Sigma, G8644) • HEPES Buffer Solution (Sigma, 83264) • Sodium Pyruvate (Sigma, S8636) • PBS (Fisger, BP399-4) • Trypsin/EDTA (Invitrogen 25300-054) • 2% BSA in PBS • Cell Extraction Buffer (Invitrogen FNN0011) • Protease inhibitor cocktail (Sigma P-2714) • PMSF 0.3M stock in DMSO (Sigma P7626) • Antibody-rabbit pMCM2 Ser53 (Bethyl #A300-756A) • Antibody-goat MCM2 (Bethyl #A300-122A) • Antibody-goat Anti Rabbit IgG HRP (Perbio Science UK Ltd 31462) • SuperSignal ELISA Pico Chemiluminescent Substrate (Perbio Science UK Ltd 37070) Method • Plate 30,000 SW48 cells per well in standard TC treated 96 well plate in 100 μL complete RPMI 1640 medium. • Allow cells to settle overnight in incubator set at 37° C. and 5% CO2. • Cell treatment: prepare a 384 well plate containing 80 μl PBS/well. The PBS should be at room temperature—to be referred to as intermediate plate. Transfer 2 μL of compound from mother plate to intermediate (daughter plate) 1:40 dilution, then 5 μL intermediate to cell (daughter) plate. • Once all cells are treated place the cells back to the incubator and incubate for 6 hours. • Dilute the capture antibody (total MCM2#A300-122A) 1 in 250 in the required volume of PBS (5 mL per assay plate, plus 5 mL for dead volume) and add 50 μL to each well of a Hybond plate. Seal the plate and incubate at room temperature for a minimum of 2 hours. • Defrost aliquot of Invitrogen Cell Extraction Buffer (FNN0011) on ice and supplement with appropriate volume of both Sigma protease inhibitor cocktail (P-2714) and PMSF (final conc 1 mM from a 1 M stock in DMSO). • After the 6 hour cell treatment time, tap out the media from the assay plates and place them in the −80° C. freezer for at least 5 minutes. • Remove plates from freezer and add 20 μL of ice cold complete lysis buffer, with the multidrop. Incubate cells for 30 minutes at 4° C. • Add 80 μL per well 2% BSA. • Flick out the remaining liquid from the capture plate and transfer 80 μL from the lysis plate to the same wells in the capture/ELISA plate, using the Biomek. Cover with plate seal and incubate plates overnight at 4° C. • Wash plates with PBS, remove any residual remaining liquid and add 50 μL per well of pMCM2 Ser53 antibody (#A300-756A) diluted 1 in 100 in 2% BSA. Cover plate and incubate at room temperature for 2 hours with gentle shaking. • Wash plates with PBS, remove any residual remaining liquid and Incubate with 50 μL goat anti rabbit antibody (1 in 800 dilution in 2% BSA), for 1 hour at room temperature. • Wash plates with PBS, remove any residual remaining liquid and add 50 μL mixed SuperSignal Pico substrate. • Incubate each plate for 5 minutes at room temperature shielding the plates from direct light (with a cover plate). Read plates with the luminescent detection.

The target of a further experiment is Cdc7/ASK (Homo sapiens, UniProt O00311). Description: Cdc7 Biochemical Assay Method 4: off-chip mobility shift assay (Carna Biosciences). Details: purchased Carna Biosciences; host or cells: baculovirus expression system. Conditions: off-chip MSA, MCM2 peptide, 5 hours; read-out: Biochemical Method 4 (pIC50) (converted). The method, then:
This protocol describes a method for assaying Cdc7/ASK for activity. The assay is an off-chip mobility shift assay (MSA) run at Carna Biosciences.
1. Preparation of Test Compound Solution.
The test compound was dissolved in and diluted with dimethylsulfoxide (DMSO) to achieve 100-fold higher concentration which was specified by the sponsor. Then the solution was further 25-fold diluted with assay buffer to make the final test compound solution. Reference compounds for assay control were prepared similarly.
Cdc7/ASK: Full-length human Cdc7 [1-574(end) amino acids of accession number NP_003494.1] was co-expressed as N-terminal GST-fusion protein (92 kDa) with Dbf4(ASK) [1-674(end) amino acids of accession number NP_006707.1] using baculovirus expression system. GST-Cdc7 was purified by using glutathione sepharose chromatography.
3. Assay Reagents and Procedures
Off-chip Mobility Shift Assay (MSA)
1) The […] of ×2 kinase solution were prepared with assay buffer (20 mM HEPES, 0.01% Triton X-100, 1 mM DTT, pH 7.5) and mixed and incubated in a well of polypropylene 384 well microplate for 5 hours at room temperature. 2) […] of Termination Buffer (QuickScout Screening Assist MSA; Carna Biosciences) was added to the well. 3) The reaction mixture was applied to LabChip system (Perkin Elmer), and the product and substrate peptide peaks were separated and quantitated. 4) The kinase reaction was evaluated by the product ratio calculated from peak heights of product (P) and substrate (S) peptides (P/(P+S)).
Reaction time is 5 hours.
The readout value of reaction control (complete reaction mixture) was set as a 0% inhibition, and the readout value of background (Enzyme(−)) was set as a 100% inhibition, then the percent inhibition of each test solution was calculated.
IC50 value was calculated from concentration vs. % Inhibition curves by fitting to a four parameter logistic curve.

The structures appear in SMILES notation. Structures can show the parent of a compound that is named as a salt. Where two headings read alike, the source gives them in different places.

Chain of Cdc7/ASK (O00311 whole entry): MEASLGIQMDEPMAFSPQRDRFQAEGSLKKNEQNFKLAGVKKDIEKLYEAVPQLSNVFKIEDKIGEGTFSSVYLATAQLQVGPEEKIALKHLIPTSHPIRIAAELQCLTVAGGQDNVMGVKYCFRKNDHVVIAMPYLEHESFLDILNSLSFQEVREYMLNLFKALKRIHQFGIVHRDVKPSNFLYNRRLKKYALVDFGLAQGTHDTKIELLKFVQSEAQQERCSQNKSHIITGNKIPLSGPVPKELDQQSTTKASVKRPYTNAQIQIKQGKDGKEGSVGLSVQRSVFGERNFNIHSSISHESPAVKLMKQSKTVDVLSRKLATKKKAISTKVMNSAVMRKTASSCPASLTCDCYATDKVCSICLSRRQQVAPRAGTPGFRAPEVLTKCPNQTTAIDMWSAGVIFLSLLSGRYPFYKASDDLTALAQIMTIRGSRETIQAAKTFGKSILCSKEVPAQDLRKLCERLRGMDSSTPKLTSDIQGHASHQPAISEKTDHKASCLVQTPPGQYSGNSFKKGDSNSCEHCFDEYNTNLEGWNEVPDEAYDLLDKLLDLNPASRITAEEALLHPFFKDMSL
Chain of Cdc7/ASK (Q9UBU7 whole entry partner): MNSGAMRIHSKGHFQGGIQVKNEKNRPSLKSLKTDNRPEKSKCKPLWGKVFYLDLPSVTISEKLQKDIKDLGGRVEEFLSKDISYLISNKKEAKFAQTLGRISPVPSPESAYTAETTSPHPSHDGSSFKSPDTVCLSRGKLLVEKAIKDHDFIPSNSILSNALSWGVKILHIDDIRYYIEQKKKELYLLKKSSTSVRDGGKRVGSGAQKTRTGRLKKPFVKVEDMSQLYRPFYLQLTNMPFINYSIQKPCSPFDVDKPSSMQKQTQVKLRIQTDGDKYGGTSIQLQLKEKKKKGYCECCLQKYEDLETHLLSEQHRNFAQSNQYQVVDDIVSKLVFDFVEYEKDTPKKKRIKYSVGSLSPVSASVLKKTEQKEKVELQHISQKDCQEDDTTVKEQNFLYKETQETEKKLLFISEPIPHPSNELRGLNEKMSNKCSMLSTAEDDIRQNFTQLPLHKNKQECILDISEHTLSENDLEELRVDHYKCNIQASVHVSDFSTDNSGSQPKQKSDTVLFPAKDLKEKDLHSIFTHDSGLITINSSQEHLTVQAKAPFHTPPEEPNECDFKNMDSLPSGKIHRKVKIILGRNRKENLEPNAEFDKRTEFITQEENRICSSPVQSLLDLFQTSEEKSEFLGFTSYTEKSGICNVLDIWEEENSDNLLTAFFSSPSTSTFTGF

Take `Cl.O=c1[nH]c(-c2ccnc(F)c2)nc(N2CCNC(C3CC3)C2)c1Cl` (single isomer, unassigned) [Compound 394]: the “Biomarker Method 3 (pEC50)” value in experiment [1] turned out to be 5.26. For the same molecule, the IC50 on Cdc7/ASK is 70.8 nM.

Turning to `Cl.O=c1[nH]c(-c2ccncc2)nc(N2CCNCC2C(F)(F)F)c1Cl` (single isomer, unassigned) [Compound 388], the “Biomarker Method 3 (pEC50)” value in experiment [1] was found to be 5.29. On Cdc7/ASK, the IC50 is 91.2 nM.

For `O=c1[nH]c(-c2ccnc(F)c2)nc(N2CCNCC2C(F)(F)F)c1Cl` (stereo not shown) [Compound 313, 5-chloro-2-(2-fluoro-4-pyridyl)-4-[2-(trifluoromethyl)piperazin-1-yl]-1H-pyrimidin-6-one hydrochloride], in experiment [1], the EC50 was 759 nM. Further, the IC50 at Cdc7/ASK was 8.51 nM.

Turning to `Cl.O=c1[nH]c(-c2ccnc(F)c2)nc(N2CCNCC2C(F)F)c1Cl` (single isomer, unassigned) [Compound 390], in experiment [1], the “Biomarker Method 3 (pEC50)” value was determined as 6.97. Besides, the IC50 at Cdc7/ASK is 4.27 nM.

In the case of `Cl.O=c1[nH]c(-c2ccnc(F)c2)nc(N2CCNC(C3CC3)C2)c1Cl` (single isomer, unassigned) [Compound 393], the “Biomarker Method 3 (pEC50)” value in experiment [1] amounted to 5.90. The IC50 on Cdc7/ASK is 13.8 nM.

For `O=c1[nH]c(-c2ccnc(F)c2)nc(N2CCNCC(F)C2)c1Cl` (single isomer, unassigned) [Compound 380, 5-chloro-4-(6-fluoro-1,4-diazepan-1-yl)-2-(2-fluoro-4-pyridyl)-1H-pyrimidin-6-one hydrochloride], the “Biomarker Method 3 (pEC50)” value in experiment [1] (hydrochloride) amounted to 6.70. Besides, the IC50 on Cdc7/ASK was 3.98 nM.

`O=c1[nH]c(-c2ccncc2)nc(N2CCNCC(F)(F)C2)c1Cl` [Compound 374]: the EC50 in experiment [1] was 437 nM. Further, on Cdc7/ASK, the IC50 was 5.75 nM.

As for `O=c1[nH]c(-c2ccnc(Cl)c2)nc(N2CCNCC(F)(F)C2)c1Cl` [Compound 401], in experiment [1], the EC50 was 437 nM. Also, at Cdc7/ASK, the IC50 was 4.79 nM.

Take `CN1CCN(c2nc(-c3ccnc(F)c3)[nH]c(=O)c2Cl)CC(F)(F)C1` [Compound 415, 5-chloro-4-(6,6-difluoro-4-methyl-1,4-diazepan-1-yl)-2-(2-fluoro-4-pyridyl)-1H-pyrimidin-6-one]: the EC50 in experiment [1] is 708 nM. Also, the IC50 at Cdc7/ASK is 9.33 nM.

On to `C[C@H]1CN[C@@H](C(F)(F)F)CN1c1nc(-c2ccnc(F)c2)[nH]c(=O)c1Cl.Cl` (single isomer, unassigned) [Compound 395, Cis-5-chloro-2-(2-fluoro-4-pyridyl)-4-[2-methyl-5-(trifluoromethyl)piperazin-1-yl]-1H-pyrimidin-6-one hydrochloride], for which the “Biomarker Method 3 (pEC50)” value in experiment [1] (hydrochloride) is on record as 5.67. In addition, the IC50 at Cdc7/ASK is 7.76 nM.

In the case of `CC(C)(F)C1CN(c2nc(-c3ccnc(F)c3)[nH]c(=O)c2Cl)CCN1` (single isomer, unassigned) [Compound 382, 5-chloro-4-[3-(1-fluoro-1-methyl-ethyl)piperazin-1-yl]-2-(2-fluoro-4-pyridyl)-1H-pyrimidin-6-one hydrochloride], in experiment [1] (hydrochloride), the “Biomarker Method 3 (pEC50)” value is 6.16. The IC50 on Cdc7/ASK is 11.7 nM.

As to `C[C@@H]1CNCCN1c1nc(-c2ccncc2F)[nH]c(=O)c1Cl` [Compound 400], the EC50 in experiment [1] was 195 nM. Besides, the IC50 at Cdc7/ASK was 5.75 nM.

In the case of `O=c1[nH]c(-c2ccnc(F)c2)nc(N2CCNCC2C(F)F)c1Cl` (stereo not shown) [Compound 376], in experiment [1], the EC50 was 141 nM. Besides, the IC50 at Cdc7/ASK is 5.5 nM.

Regarding `Cl.O=c1[nH]c(-c2ccnc(F)c2)nc(N2CCNCC(C(F)(F)F)C2)c1Cl` (stereo not shown) [Compound 386], in experiment [1], the “Biomarker Method 3 (pEC50)” value was found to be 6.00. On Cdc7/ASK, the IC50 was 5.62 nM.

In the case of `Cl.O=c1[nH]c(-c2ccnc(F)c2)nc(N2CCNCC2C(F)F)c1Cl` (single isomer, unassigned) [Compound 389], the “Biomarker Method 3 (pEC50)” value in experiment [1] was 5.68. For the same molecule, at Cdc7/ASK, the IC50 is 21.4 nM.

On to `O=c1[nH]c(-c2ccnc(F)c2)nc(N2CCNCC23CC3)c1Cl` [Compound 377], for which, in experiment [1], the EC50 was 148 nM. Besides, the IC50 on Cdc7/ASK was 4.37 nM.

As to `Cl.O=c1[nH]c(-c2ccnc(F)c2)nc(N2CCNCC2C(F)(F)F)c1Cl` (single isomer, unassigned) [Compound 383], the “Biomarker Method 3 (pEC50)” value in experiment [1] came to 6.67. For the same molecule, the IC50 on Cdc7/ASK was 4.47 nM.

As for `Cl.O=c1[nH]c(-c2ccnc(F)c2)nc(N2CCNCC2C(F)(F)F)c1Cl` (single isomer, unassigned) [Compound 384], the “Biomarker Method 3 (pEC50)” value in experiment [1] came to 5.33. In addition, the IC50 at Cdc7/ASK is 42.7 nM.

For `C[C@H]1CN[C@@H](C(F)(F)F)CN1c1nc(-c2ccnc(F)c2)[nH]c(=O)c1Cl.Cl` (single isomer, unassigned) [Compound 396, Cis-5-chloro-2-(2-fluoro-4-pyridyl)-4-[2-methyl-5-(trifluoromethyl)piperazin-1-yl]-1H-pyrimidin-6-one hydrochloride], the “Biomarker Method 3 (pEC50)” value in experiment [1] (hydrochloride) amounted to 5.11. In addition, the IC50 at Cdc7/ASK is 135 nM.

As to `O=c1[nH]c(-c2ccnc(F)c2)nc(N2CCNCC(F)C2)c1Cl` (single isomer, unassigned) [Compound 379, 5-chloro-4-(6-fluoro-1,4-diazepan-1-yl)-2-(2-fluoro-4-pyridyl)-1H-pyrimidin-6-one hydrochloride], the “Biomarker Method 3 (pEC50)” value in experiment [1] (hydrochloride) was determined as 5.88. For the same molecule, the IC50 at Cdc7/ASK is 7.94 nM.

As to `Cl.O=c1[nH]c(-c2ccncc2)nc(N2CCNCC2C(F)(F)F)c1Cl` (single isomer, unassigned) [Compound 387], the “Biomarker Method 3 (pEC50)” value in experiment [1] was 6.51. In addition, the IC50 on Cdc7/ASK was 6.03 nM.

Consider `Cl.O=c1[nH]c(-c2ccnc(F)c2)nc(N2CCNCC(C(F)(F)F)C2)c1Cl` (stereo not shown) [Compound 385], for which the “Biomarker Method 3 (pEC50)” value in experiment [1] came out at 5.87. Besides, the IC50 at Cdc7/ASK was 11.5 nM.

For `O=c1[nH]c(-c2ccncc2F)nc(N2CCNCC(F)(F)C2)c1Cl` [Compound 399, 5-chloro-4-(6,6-difluoro-1,4-diazepan-1-yl)-2-(3-fluoro-4-pyridyl)-1H-pyrimidin-6-one hydrochloride], in experiment [1], the EC50 is 1660 nM. Besides, at Cdc7/ASK, the IC50 is 12.6 nM.
